Reference: patent US7868022B2, “2-amino-quinoline derivatives useful as inhibitors of β-secretase (BACE)” (Janssen Pharmaceutica NV, priority 2006, dated 2011)

Assays:
Type in all cases: biochemical
β-secretase (BACE) [1] = biological target: T1, β-secretase (BACE) (Homo sapiens, UniProt P56817); assay: In Vitro BACE FS1 % Inhibition Assay (Example 15); conditions: FS1 substrate
T1 construct: purchased Panvera
Description: (§1) The following reagents were used in this assay: sodium acetate, PEG8000 (Sigma), DMSO, HEPES, FS1 substrate [R(AedensE)[…]-(DabcylK)R], β-secretase (BACE) (Panvera), and 96-well plate (HE microplate, Molecular Devices).
(§2) The following assay buffers were prepared and used in this assay: (1) enzyme assay buffer (0.05 M sodium acetate, pH5, 0.1% PEG8000 (w/v)), (2) substrate assay buffer (0.05 M sodium acetate, pH5), and (3) compound vehicle (30% DMSO in 50 mM HEPES, pH 7.4).
(§3) The FS1-substrate stock solution was prepared in DMSO as a 10 mg/mL solution. The FS1-substrate working solution was prepared by diluting the 10 mg/mL stock solution with substrate assay buffer to a final concentration of 300 μg/mL. The β-secretase (BACE) working solution was prepared by diluting a 0.83 mg/mL BACE stock solution with enzyme assay buffer to a final concentration of 4 μg/mL.
Test compounds were dissolved in DMSO to 10 mM. Compounds were further diluted in vehicle to various concentrations in the range of 405 μM to 4.05 μM (13.5× final compound concentration in screening plate).
The screening procedure for this assay was as follows: 15 μL of BACE working solution was pipetted into each well of a 96-well plate. To each well was then pipetted 2 μL of test compound at the selected concentration. Test compound and BACE were then mixed with a pipettor and incubated for 20 min at room temperature. To each well was then added 10 μL of the FS1 substrate working solution. The plates were then incubated for 1 hour at room temperature. The fluorescence for each well was then measured on an LJL analyst (Ex 360 nm/Em 530 nm).
The procedure for the blank (negative control) was as follows. 15 μL of assay buffer was pipetted into each well to be used as a blank control. To each well was then added 2 μL of vehicle and 10 μL of FS1-substrate working solution. The plates were then incubated for 1 hour at room temperature. The fluorescence was measured on an LJL analyst (Ex 360 nm/Em 530 nm).
The procedure for the positive control was as follows: 15 μL of BACE working solution was pipetted into each well to be used as a positive control. To each well was then pipetted 2 μL of vehicle. Vehicle and BACE were then mixed with a pipettor and incubated for 20 min at room temperature. To each well was then added 10 μL of the FS1 substrate working solution. The plates were then incubated for 1 hour at room temperature. The fluorescence (Fl) was then measured on an LJL analyst (Ex 360 nm/Em 530 nm).
For test compounds, % inhibition was determined at each concentration as follows:
% Inhibition values of less than 30% were indistinguishable from control and are listed as ≦30% in the Table below. % Inhibition values greater than 100% were indistinguishable from 100% within the error of the measurement.

β-secretase (BACE) [2] = biological target: T1, β-secretase (BACE); assay: In Vitro BACE Assay, Ki (Example 16); conditions: FS1 substrate, pH5
Description: as §1, §2, §3
Test compounds were dissolved in DMSO at 10 mM.
The procedure for this assay was as follows: 15 μL of BACE working solution was pipetted into each well of a 96-well plate. To each well was then pipetted 2 μL of test compound at the selected concentration. Test compound and BACE were then mixed with a pipettor and incubated for 20 min at room temperature. […] The fluorescence for each well was then measured on a Polarstar fluorometer (Ex 390 nm/Em 520 nm) for 20 min at room temperature, reading fluorescence at 1 min intervals.
The procedure for the positive control was as follows: 15 μL of BACE working solution was pipetted into each well to be used as a positive control. […] The fluorescence was then measured on a Polarstar fluorometer (Ex 390 nm/Em 520 nm) for 20 min at room temperature, reading fluorescence at 1 min intervals.
For test compounds, Ki inhibition was determined as follows: For each compound concentration and positive control, rate of cleavage of substrate (Vi, where i=compound concentration in μM) was determined as Δ Fluorescence/Δ time (min). […] The Ki was then determined by fitting the following equation to the graph of [I] vs Vi Y=aVmax/(50+24*(1+X/Ki)),

human BACE-1 = human BACE-1 (Homo sapiens, UniProt P56817); assay: In Vitro BACE Assay run by CEREP (Example 19); conditions: recombinant enzyme; for inhibition at 1 µM: pH 4.5, 1.0 μM compound; for IC50: pH 4.5; for inhibition at 10 µM: pH 4.5, 10.0 μM compound
Description: This assay was run by CEREP (Catalog Ref. 761-B, Referred to SOP No. 1C131; ERMOLIEFF, J., LOY, J. A., KOELSCH, G. and TANG, J., Proteolytic activation of recombinant pro-memapsin 2 (pro-BACE) studied with new fluorogenic substrates, Biochemistry, (2000) Vol. 39, p. 12450).
More specifically the assay, run at 50 μL in a 96 well plate, evaluated the effect of test compound on the activity of the human BACE-1 quantified by measuring the formation of Mca-S-E-V—N-L-NH2 from Mca-S-E-V—N-L-D-A-E-F—R—K(Dnp)-R—R—NH2, using a recombinant enzyme.
The test compound, reference compound or water (control) was added to a buffer containing 0.09 M sodium acetate (pH 4.5) and 0.25 μg BACE-1. Compound interference with the fluorimetric detection method due to autofluorescence was then checked by measurements at the wavelengths defined to evaluate the enzyme activity. Thereafter, the reaction was initiated by adding 7.5 μM of the substrate Mca-S-E-V—N-L-D-A-E-F—R—K(Dnp)-R—R—NH2 and the mixture was incubated for 60 min at 37° C. For control basal measurement, the substrate was omitted from the reaction mixture. Immediately after the incubation, the fluorescence intensity emitted by the reaction product Mca-S-E-V—N-L-NH2 was measured at λex=320 nm and λem=405 nm using a microplate reader (Ultra, Tecan). The standard inhibitory reference compound was OM99-2, which was tested in each experiment at several concentrations to obtain an inhibition curve from which its IC50 value was calculated.

human BACE-1, sequence (P56817 46-501): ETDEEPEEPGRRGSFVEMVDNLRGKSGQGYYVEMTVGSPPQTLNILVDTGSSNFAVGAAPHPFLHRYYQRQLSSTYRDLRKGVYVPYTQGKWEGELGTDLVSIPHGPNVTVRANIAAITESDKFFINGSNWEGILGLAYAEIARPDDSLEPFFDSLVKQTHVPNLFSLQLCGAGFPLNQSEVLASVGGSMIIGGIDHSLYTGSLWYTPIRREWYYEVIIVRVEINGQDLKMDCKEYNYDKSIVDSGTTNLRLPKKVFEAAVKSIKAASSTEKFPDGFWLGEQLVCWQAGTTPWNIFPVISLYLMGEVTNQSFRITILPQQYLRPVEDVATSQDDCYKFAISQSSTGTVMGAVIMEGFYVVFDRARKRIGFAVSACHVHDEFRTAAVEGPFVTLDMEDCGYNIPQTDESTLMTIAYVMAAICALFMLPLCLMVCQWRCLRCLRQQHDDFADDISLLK
T1 sequence (P56817 46-501): as above

Row | inhibition at 1 µM (human BACE-1) [%] | IC50 (human BACE-1) [nM] | inhibition at 10 µM (human BACE-1) [%] | Compound | other results
1 |  |  |  | Nc1nc2ccc(Oc3ccccc3)cc2cc1CCC(=O)NC1C2CC3CC(C2)CC1C3 (stereo not shown) [compound 2] | inhibition at 0.3 µM (β-secretase (BACE) [1]; 0.3 μM compound): 45%; inhibition at 1 µM (β-secretase (BACE) [1]; 1 μM compound): 78%; inhibition at 3 µM (β-secretase (BACE) [1]; 3 μM compound): 107%; Ki (β-secretase (BACE) [2]): 230 nM
2 | 12 | 3300 |  | CC(C)(C)n1cc(CC(c2cc3cc(Oc4ccccc4)ccc3nc2N)C2CCOCC2)nn1 (stereo not shown) [compound 150] | 
3 |  | 360 | 95 | COc1cc2nc(N)c(C(CCCN(CCN3CCOCC3)C3CCCCC3)C3CCOCC3)cc2cc1Oc1ccccc1 (stereo not shown) [compound 108] | 
4 |  | 360 | 89 | COc1cc2nc(N)c(C(CCC(=O)N(CCN3CCOCC3)C3CCCCC3)C3CCOCC3)cc2cc1Oc1ccccc1 (stereo not shown) [compound 107] | 
5 |  |  |  | Nc1nc2ccc(Oc3ccccc3)cc2cc1C(CCC(=O)NC1C2CC3CC(C2)CC1C3)C1CCCCC1 (stereo not shown) [compound 15] | inhibition at 0.3 µM (β-secretase (BACE) [1]; 0.3 μM compound): 43%; inhibition at 1 µM (β-secretase (BACE) [1]; 1 μM compound): 58%; inhibition at 3 µM (β-secretase (BACE) [1]; 3 μM compound): 78%; Ki (β-secretase (BACE) [2]): 280 nM
6 | 67 | 2200 |  | Nc1nc2ccc(Oc3ccccc3)cc2cc1C(CCc1cn(C23CC4CC(CC(C4)C2)C3)nn1)C1CCOCC1 (stereo not shown) [compound 155] | 
7 |  | 1700 | 94 | Nc1nc2ccc(Oc3ccccc3)cc2cc1C(CCCC(=O)N(CCN1CCOCC1)C1CCCCC1)C1CCOCC1 (stereo not shown) [compound 90] | 
8 | 85 | 210 |  | CC(C)(C)CCNC(=O)CCC[C@H](c1cc2cc(Oc3ccccc3)ccc2nc1N)C1CCOCC1 [compound 82] | 
9 |  | 82 | 95 | Cn1ccnc1CN(CCCC(c1cc2cc(Oc3ccccc3)ccc2nc1N)C1CCOCC1)C1CCCCC1 (stereo not shown) [compound 94] | 
10 |  | 120 | 95 | COC(=O)C(COCc1ccccc1)NCCCC(c1cc2cc(Oc3ccccc3)ccc2nc1N)C1CCOCC1 (stereo not shown) [compound 95] | 
11 |  | 370 | 72 | COc1cc2nc(N)c(C(CCC(=O)NCCC(C)(C)C)C3CCOCC3)cc2cc1Oc1ccccc1 (stereo not shown) [compound 100] | 
12 |  | 340 | 98 | CN(CCC[C@H](c1cc2cc(Oc3ccccc3)ccc2nc1N)C1CCOCC1)CC1CCCCC1 [compound 85] | 
13 |  | 86 | 95 | CC(C)(C)CCN(CCCC(c1cc2cc(Oc3ccccc3)ccc2nc1N)C1CCOCC1)CCN1CCCC1 (stereo not shown) [compound 93] | 
14 | 54 | 650 |  | CN(C(=O)CCCC(c1cc2cc(Oc3ccccc3)ccc2nc1N)C1CCCCC1)C1CCCCC1 (stereo not shown) [compound 40] | inhibition at 0.3 µM (human BACE-1; pH 4.5, 0.3 μM compound): 13%
15 | 75 | 340 |  | Nc1nc2ccc(Oc3ccccc3)cc2cc1[C@@H](CCC(=O)NCC1CC1)C1CCOCC1 [compound 78] | 
16 |  | 690 | 85 | CCOC(=O)C(COCc1ccccc1)NCCCC(c1cc2cc(Oc3ccccc3)ccc2nc1N)C1CCOCC1 (stereo not shown) [compound 89] | 

Row | inhibition at 1 µM (human BACE-1) [%] | IC50 (human BACE-1) [nM] | inhibition at 10 µM (human BACE-1) [%] | Compound | other results
17 | 85 | 310 |  | CC(C)(C)c1cc(CCC(c2cc3cc(Oc4ccccc4)ccc3nc2N)C2CCOCC2)on1 (stereo not shown) [compound 156] | 
18 | 87 | 740 |  | Nc1nc2ccc(Oc3ccccc3)cc2cc1C(CCC(=O)N(CCO)C1CCCCC1)C1CCOCC1 (stereo not shown) [compound 50] | 
19 |  | 1100 | 86 | Nc1nc2ccc(Oc3ccccc3)cc2cc1C(CCCC(=O)N(CCN1CCCC1)C1CCCCC1)C1CCOCC1 (stereo not shown) [compound 91] | 
20 | 46 | 670 |  | Nc1nc2ccc(Oc3ccccc3)cc2cc1C(Cc1cn(C23CC4CC(CC(C4)C2)C3)nn1)C1CCOCC1 (stereo not shown) [compound 153] | 
21 | 53 | 560 |  | CC(C)(C)c1cc(CC(c2cc3cc(Oc4ccccc4)ccc3nc2N)C2CCOCC2)on1 (stereo not shown) [compound 152] | 
22 | 89 | 290 |  | CC(C)(C)CCNC(=O)CC[C@H](c1cc2cc(Oc3ccccc3)ccc2nc1N)C1CCOCC1 [compound 79] | 
23 | 90 | 310 |  | CC(C)(C)Cc1cc(CC(c2cc3cc(Oc4ccccc4)ccc3nc2N)C2CCOCC2)on1 (stereo not shown) [compound 151] | 
24 |  | 270 | 97 | CCOc1cc2nc(N)c(C(CCC(=O)NCCC(C)(C)C)C3CCOCC3)cc2cc1Oc1ccccc1 (stereo not shown) [compound 102] | 
25 | 100 | 220 |  | Cn1ccnc1CN(CCC(C)(C)C)C(=O)CC[C@H](c1cc2cc(Oc3ccccc3)ccc2nc1N)C1CCOCC1 [compound 86] | 
26 |  | 290 | 85 | COc1cc2nc(N)c(C(CCC(=O)N(C)C3CCCCC3)C3CCOCC3)cc2cc1Oc1ccccc1 (stereo not shown) [compound 101] | 
27 |  | 1700 | 83 | CC(C)C(CO)NCCCC(c1cc2cc(Oc3ccccc3)ccc2nc1N)C1CCOCC1 (stereo not shown) [compound 96] | 
28 |  |  |  | Cn1ccnc1CN(CCCC(c1cc2cc(Oc3ccccc3)ccc2nc1N)C1CCOCC1)CCC(C)(C)C (stereo not shown) [Example 11, 3-[4-[(3,3-dimethyl-butyl)-(1-methyl-1H-imidazol-2-ylmethyl)-amino]-1-(tetrahydro-pyran-4-yl)-butyl]-6-phenoxy-quinolin-2-ylamine] | % Inhibition @ 0.3 μM (β-secretase (BACE) [1]; 0.3 μM compound): −6%; % Inhibition @ 1 μM (β-secretase (BACE) [1]; 1 μM compound): 5%; % Inhibition @ 3 μM (β-secretase (BACE) [1]; 3 μM compound): 81%
29 |  | 260 | 99 | Cn1ccnc1CN(CCC(C)(C)C)C(=O)CCCC(c1cc2cc(Oc3ccccc3)ccc2nc1N)C1CCOCC1 (stereo not shown) [compound 87] | 
30 | 96 | 360 |  | CN(CC1CCCCC1)C(=O)CC[C@H](c1cc2cc(Oc3ccccc3)ccc2nc1N)C1CCOCC1 [compound 84] | 
31 |  |  |  | Nc1nc2ccc(Oc3ccccc3)cc2cc1C(CCC(=O)NC1C2CC3CC(C2)CC1C3)C1CCOCC1 (stereo not shown) [compound 24] | inhibition at 0.3 µM (β-secretase (BACE) [1]; 0.3 μM compound): 56%; inhibition at 1 µM (β-secretase (BACE) [1]; 1 μM compound): 103%; inhibition at 3 µM (β-secretase (BACE) [1]; 3 μM compound): 132%; Ki (β-secretase (BACE) [2]): 66 nM
